Assay results from paper PMC6812009, “Covalent Aurora A regulation by the metabolic integrator coenzyme A” (Redox Biology, 2019).

What was measured:
Assay in all cases: Kinase profiling screen (radioactive filter-binding assay)
Format in all cases: biochemical
BTK = BTK (Homo sapiens, UniProt Q06187); conditions: for activity at 100 µM: 100 μM compound, 50 μM ATP, read-out: Kinase activity, % of activity in the absence of inhibitor
Method in brief: (§1)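 Single-point in vitro screen: 100 μM final of CoA, dpCoA and ADP, run in duplicate against recombinant kinase with a model substrate and optimal ATP.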

JNK3 = JNK3 (Homo sapiens, UniProt P53779); conditions: 100 μM compound, 20 μM ATP; read-out: Kinase activity, % of activity in the absence of inhibitor
Method in brief: as §1

MARK1 = MARK1 (Homo sapiens, UniProt Q9P0L2); conditions: 100 μM compound, 20 μM ATP; read-out: Kinase activity, % of activity in the absence of inhibitor
Method in brief: as §1

ASK1 = target: T1, ASK1 (Homo sapiens, UniProt Q99683); conditions: 100 μM compound, 50 μM ATP; read-out: Kinase activity, % of activity in the absence of inhibitor
T1 sequence (Q99683 1-1374): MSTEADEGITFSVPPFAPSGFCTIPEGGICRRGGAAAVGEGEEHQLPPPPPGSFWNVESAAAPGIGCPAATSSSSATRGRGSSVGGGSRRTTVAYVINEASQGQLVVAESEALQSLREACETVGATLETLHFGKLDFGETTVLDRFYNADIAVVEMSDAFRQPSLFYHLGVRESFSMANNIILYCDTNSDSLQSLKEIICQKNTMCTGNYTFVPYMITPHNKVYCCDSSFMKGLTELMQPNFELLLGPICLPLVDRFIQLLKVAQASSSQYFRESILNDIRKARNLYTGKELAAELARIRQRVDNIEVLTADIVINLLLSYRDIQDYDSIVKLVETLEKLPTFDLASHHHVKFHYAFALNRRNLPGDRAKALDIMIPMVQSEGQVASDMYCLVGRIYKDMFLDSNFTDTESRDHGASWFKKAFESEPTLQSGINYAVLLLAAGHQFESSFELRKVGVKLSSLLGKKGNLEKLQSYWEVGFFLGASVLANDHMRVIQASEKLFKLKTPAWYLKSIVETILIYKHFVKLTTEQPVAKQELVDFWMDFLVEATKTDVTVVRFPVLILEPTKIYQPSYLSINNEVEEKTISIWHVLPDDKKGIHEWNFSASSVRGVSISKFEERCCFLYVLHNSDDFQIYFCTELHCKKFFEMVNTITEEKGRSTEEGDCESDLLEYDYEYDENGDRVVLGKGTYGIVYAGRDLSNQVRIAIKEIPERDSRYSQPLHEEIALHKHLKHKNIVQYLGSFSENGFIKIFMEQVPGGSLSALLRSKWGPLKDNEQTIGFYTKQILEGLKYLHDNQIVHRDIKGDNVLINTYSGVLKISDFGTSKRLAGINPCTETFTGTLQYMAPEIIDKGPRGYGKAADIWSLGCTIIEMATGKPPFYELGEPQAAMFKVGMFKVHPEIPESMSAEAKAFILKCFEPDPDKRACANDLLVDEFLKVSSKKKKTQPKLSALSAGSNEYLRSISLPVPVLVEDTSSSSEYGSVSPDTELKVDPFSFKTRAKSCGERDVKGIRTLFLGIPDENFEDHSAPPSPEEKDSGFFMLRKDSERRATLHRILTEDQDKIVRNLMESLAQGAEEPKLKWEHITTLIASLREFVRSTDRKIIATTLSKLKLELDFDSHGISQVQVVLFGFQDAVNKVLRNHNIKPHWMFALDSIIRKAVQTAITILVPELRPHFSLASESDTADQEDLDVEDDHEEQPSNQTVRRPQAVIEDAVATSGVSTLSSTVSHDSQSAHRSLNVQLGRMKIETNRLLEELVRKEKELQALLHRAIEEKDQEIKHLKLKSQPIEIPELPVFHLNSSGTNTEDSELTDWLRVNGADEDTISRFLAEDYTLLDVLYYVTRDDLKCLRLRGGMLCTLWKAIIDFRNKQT
Method in brief: as §1

PKA = PKA (Homo sapiens, UniProt P17612); conditions: for activity at 100 µM: 100 μM compound, 20 μM ATP, read-out: Kinase activity, % of activity in the absence of inhibitor
Method in brief: as §1

p38γ MAPK = target: T2, p38γ MAPK (Homo sapiens, UniProt P53778); conditions: 100 μM compound, 5 μM ATP; read-out: Kinase activity, % of activity in the absence of inhibitor
T2 sequence (P53778 1-367): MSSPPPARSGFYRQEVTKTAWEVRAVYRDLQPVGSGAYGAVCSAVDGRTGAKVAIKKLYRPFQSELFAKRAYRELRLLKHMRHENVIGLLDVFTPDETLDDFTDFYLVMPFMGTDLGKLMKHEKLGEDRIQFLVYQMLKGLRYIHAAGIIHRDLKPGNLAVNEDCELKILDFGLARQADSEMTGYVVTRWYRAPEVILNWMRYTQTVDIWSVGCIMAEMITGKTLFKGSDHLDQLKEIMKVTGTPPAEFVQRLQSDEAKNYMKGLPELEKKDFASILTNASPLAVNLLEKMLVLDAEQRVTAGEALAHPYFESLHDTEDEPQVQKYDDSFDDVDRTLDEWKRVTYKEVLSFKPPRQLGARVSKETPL
Method in brief: as §1

PKCγ = PKCγ (Homo sapiens, UniProt P05129); conditions: 100 μM compound, 20 μM ATP; read-out: Kinase activity, % of activity in the absence of inhibitor
Method in brief: as §1

TAK1 = target: T3, TAK1 (Homo sapiens, UniProt O43318); conditions: 100 μM compound, 5 μM ATP; read-out: Kinase activity, % of activity in the absence of inhibitor
T3 sequence (O43318 1-303 limits assumed): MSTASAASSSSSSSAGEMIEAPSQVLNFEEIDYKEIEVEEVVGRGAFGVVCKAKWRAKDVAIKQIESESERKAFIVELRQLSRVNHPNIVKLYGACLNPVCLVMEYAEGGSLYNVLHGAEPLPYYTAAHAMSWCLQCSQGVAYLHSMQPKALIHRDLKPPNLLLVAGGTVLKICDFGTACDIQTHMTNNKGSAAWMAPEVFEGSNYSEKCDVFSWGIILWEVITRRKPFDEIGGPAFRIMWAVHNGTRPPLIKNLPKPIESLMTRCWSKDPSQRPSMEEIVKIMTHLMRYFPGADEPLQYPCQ
Method in brief: as §1

ERK2 = ERK2 (Homo sapiens, UniProt P28482); conditions: 100 μM compound, 20 μM ATP; read-out: Kinase activity, % of activity in the absence of inhibitor
Method in brief: as §1

Chain of JNK3 (P53779 whole entry): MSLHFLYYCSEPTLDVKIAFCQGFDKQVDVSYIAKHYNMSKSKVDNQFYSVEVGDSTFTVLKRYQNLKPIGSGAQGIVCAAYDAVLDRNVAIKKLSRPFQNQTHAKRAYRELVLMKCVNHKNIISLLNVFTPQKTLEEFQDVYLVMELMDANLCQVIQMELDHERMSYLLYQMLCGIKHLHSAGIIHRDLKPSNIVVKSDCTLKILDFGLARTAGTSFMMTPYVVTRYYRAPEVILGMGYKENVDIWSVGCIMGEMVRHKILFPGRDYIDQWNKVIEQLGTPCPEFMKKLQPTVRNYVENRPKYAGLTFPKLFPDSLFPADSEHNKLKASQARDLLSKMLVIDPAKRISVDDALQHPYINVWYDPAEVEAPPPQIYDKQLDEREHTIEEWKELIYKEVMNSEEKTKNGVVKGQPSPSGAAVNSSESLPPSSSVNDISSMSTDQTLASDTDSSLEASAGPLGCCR
Chain of MARK1 (Q9P0L2 whole entry): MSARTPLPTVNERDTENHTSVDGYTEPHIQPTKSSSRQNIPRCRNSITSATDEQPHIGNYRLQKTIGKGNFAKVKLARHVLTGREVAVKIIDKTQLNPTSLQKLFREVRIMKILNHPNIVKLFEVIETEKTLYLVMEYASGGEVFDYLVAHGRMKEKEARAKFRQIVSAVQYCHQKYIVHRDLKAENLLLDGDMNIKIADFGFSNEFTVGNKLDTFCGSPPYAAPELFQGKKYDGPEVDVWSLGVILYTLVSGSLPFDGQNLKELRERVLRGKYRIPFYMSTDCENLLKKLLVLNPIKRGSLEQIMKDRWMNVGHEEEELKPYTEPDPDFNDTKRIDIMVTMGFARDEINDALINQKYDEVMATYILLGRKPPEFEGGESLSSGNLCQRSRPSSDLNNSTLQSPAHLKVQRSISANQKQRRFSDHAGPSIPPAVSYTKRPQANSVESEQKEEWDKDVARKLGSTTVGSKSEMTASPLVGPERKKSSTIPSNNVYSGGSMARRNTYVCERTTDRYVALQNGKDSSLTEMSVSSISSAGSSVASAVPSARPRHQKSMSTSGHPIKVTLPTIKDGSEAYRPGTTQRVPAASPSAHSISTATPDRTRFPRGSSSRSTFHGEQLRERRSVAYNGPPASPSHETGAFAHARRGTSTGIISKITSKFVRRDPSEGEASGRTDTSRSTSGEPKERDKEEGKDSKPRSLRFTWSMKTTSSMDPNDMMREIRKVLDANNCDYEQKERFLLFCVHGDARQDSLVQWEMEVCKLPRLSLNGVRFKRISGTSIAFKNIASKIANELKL
Chain of BTK (Q06187 whole entry): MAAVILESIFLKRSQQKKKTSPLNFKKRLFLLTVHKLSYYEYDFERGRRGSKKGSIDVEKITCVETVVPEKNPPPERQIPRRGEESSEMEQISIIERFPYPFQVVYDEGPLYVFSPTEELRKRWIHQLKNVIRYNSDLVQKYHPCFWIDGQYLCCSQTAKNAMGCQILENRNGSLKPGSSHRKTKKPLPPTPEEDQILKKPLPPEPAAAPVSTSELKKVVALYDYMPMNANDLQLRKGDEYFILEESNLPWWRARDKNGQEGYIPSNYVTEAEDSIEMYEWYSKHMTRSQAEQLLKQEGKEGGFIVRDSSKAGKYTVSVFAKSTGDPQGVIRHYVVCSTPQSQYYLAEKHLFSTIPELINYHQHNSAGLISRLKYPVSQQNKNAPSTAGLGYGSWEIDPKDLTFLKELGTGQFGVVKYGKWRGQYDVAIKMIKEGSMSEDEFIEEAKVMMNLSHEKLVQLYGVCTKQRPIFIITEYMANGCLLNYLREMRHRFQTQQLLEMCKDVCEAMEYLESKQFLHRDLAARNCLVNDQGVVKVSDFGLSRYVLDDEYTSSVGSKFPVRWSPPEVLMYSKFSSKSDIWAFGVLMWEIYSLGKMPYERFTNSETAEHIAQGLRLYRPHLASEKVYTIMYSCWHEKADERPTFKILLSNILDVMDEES
Chain of ERK2 (P28482 whole entry): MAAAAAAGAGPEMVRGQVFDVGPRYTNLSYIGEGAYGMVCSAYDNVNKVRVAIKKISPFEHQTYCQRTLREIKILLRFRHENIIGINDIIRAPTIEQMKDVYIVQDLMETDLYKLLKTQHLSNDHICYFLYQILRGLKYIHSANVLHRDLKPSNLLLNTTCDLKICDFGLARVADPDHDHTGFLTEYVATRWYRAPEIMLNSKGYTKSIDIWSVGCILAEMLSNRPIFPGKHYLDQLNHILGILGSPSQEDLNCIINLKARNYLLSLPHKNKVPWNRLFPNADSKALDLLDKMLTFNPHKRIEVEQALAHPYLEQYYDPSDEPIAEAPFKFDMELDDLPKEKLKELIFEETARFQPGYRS

| SMILES | activity at 100 µM (BTK) | BTK inhibition (in words) (BTK; kinase profiling, 100 μM) | activity at 100 µM (JNK3) | activity at 100 µM (MARK1) | activity at 100 µM (ASK1) | activity at 100 µM (PKA) | PKA inhibition in vitro (PKA; kinase profiling, 100 μM) | activity at 100 µM (p38γ MAPK) | activity at 100 µM (PKCγ) | activity at 100 µM (TAK1) | activity at 100 µM (ERK2) |
| --- | --- | --- | --- | --- | --- | --- | --- | --- | --- | --- | --- |
| CC(C)(COP(=O)(O)OP(=O)(O)OC[C@H]1O[C@@H](n2cnc3c(N)ncnc32)[C@H](O)[C@@H]1OP(=O)(O)O)[C@@H](O)C(=O)NCCC(=O)NCCS [CoA, Coenzyme A] | 67.9% | modestly inhibited | 101% | 95.3% | 129% | 98.9% | not detected | 127% | 70.2% | 115% | 120% |
| Nc1ncnc2c1ncn2C1OC(COP(=O)(O)OP(=O)(O)O)C(O)C1O (centres unmarked) [ADP] | 18.2% |  | 58.6% | 28.1% | 70.2% | 27.8% |  | 26% | 71.9% | 15.8% | 54.4% |
| CC(C)(COP(=O)(O)OP(=O)(O)OCC1OC(n2cnc3c(N)ncnc32)C(O)C1O)C(O)C(=O)NCCC(=O)NCCS (centres unmarked) [dpCoA, dephospho-CoA] | 30.6% |  | 63.2% | 68% | 88.6% | 81.3% |  | 65.9% | 66.4% | 79.6% | 81.7% |
